Assay [1] has as its system Cox standard strain albino male mice. Kind of assay: Mouse writhing inhibition assay (acetic acid-induced writhing). In kind it is in vivo. The following applies: sc, s.c. administration, dose required to inhibit acetic acid (0.60 percent, i.p.) induced writhing by fifty percent.
The test system is the same in assay [2]. Described as above. In kind it is in vivo. The conditions noted are these: po, p.o. administration (gavage, 5% acacia suspension, sixty minutes before acetic acid), dose required to inhibit induced writhing by fifty percent. From the text:
Mouse Writhing Inhibition Assay
Writhing, characterized by contraction of the abdominal musculature, extension of the hindlegs, and rotation of the trunk, was induced in Cox standard strain albino male mice. The mice,. weighing 18-24 grams, were fasted overnight and given the test compound by gavage in an acacia suspension (5%) sixty minutes before writhing was induced by the intraperitoneal administration of acetic acid (0.60 percent). Each treatment group consisted of 5 mice. The total number of writhes for the treatment group was determined during a 10-minute observation starting 5 minutes after acetic acid administration.
The results in the mouse writhing assay are presented as the effective dose in mg./kg. of the tested compound required to inhibit induced writhing in the test animals by fifty percent (ED50). Results are presented in Column II for both subcutaneous (s.c.) and oral (p.o.) administration of the test compound as compared to the reference compound meperidine.

The structures appear in SMILES notation. Where a name gives a salt, the structure may show the parent alone.

As to `CN1CCC23CCCC2(CCc2ccc(O)cc23)C1` (racemic) [Example 2, 1,2,3,4,5,6-hexahydro-3-methyl-4a,lOb-propanobenz[f]isoquinolin-9-ol maleate], the ED50 was found to be 2.4 mg/kg in assay [1] and 17 mg/kg in assay [2].
For `CN1CCC23CCCC2(CCc2ccccc23)C1` (racemic) [Example 8, 1,2,3,4,5,6-hexahydro-3-methyl-propanobenz-[f]isoquinoline hydrobromide], in that order: 23 mg/kg and 68 mg/kg.
Regarding `COc1ccc2c(c1)C13CCCC1(CC2)CN(C)CC3.Cl` (stereo not shown) [Example 1, 1,2,3,4,5,6-hexahydro-3-methyl-9-methoxy-4a,10b-propanobenz[f]isoquinoline hydrochloride], the ED50 in assay [1] came out at 17 mg/kg; in assay [2] it was 23 mg/kg.
Consider `COc1ccc2c(c1)C13CCCC1(CC2)CNCC3.Cl` (stereo not shown) [Example 3, 1,2,3,4,5,6-hexahydro-9-methoxy-4a,10b-propanobenz[f]isoquinoline hydrochloride], for which the ED50 stood at 56 mg/kg in assay [1] and 66 mg/kg in assay [2].
In the case of `Oc1ccc2c(c1)C13CCCC1(CC2)CNCC3` (stereo not shown) [Example 4, 1,2,3,4,5,6-hexahydro-4a,10b-propanobenz[f]-isoquinolin-9-ol], the ED50 is 52 mg/kg in assay [1] and 78 mg/kg in assay [2].
On the same counts, the results for `Oc1ccc2c(c1)C13CCCC1(CC2)CN(CC1CC1)CC3` (stereo not shown) [Example 6, 1,2,3,4,5,6-hexahydro-3-cyclopropylmethyl-4a,10b-propanobenz[f]isoquinolin-9-ol] are 60 mg/kg and greater than 80 mg/kg.
In the case of `C=CCN1CCC23CCCC2(CCc2ccc(O)cc23)C1` (stereo not shown) [Example 7, 1,2,3,4,5,6-hexahydro-3-(2-propenyl)-4a,10b-propanobenz-[f]isoquinolin-9-ol], the ED50 in assay [1] and in assay [2] was greater than 80 mg/kg each time.
For the compound `CCOC(=O)C1(c2ccccc2)CCN(C)CC1` [meperidine, reference compound], the ED50 worked out at 2.8 mg/kg in assay [1] and 21 mg/kg in assay [2].

The record behind these values is patent EP0106487A2, “Improvements in or relating to novel bridged hexahydrobenz(f)isoquinolines” (ELI LILLY AND COMPANY, priority 1982, dated 1984).
